Experiments:
[1] = test system: subjects with thalassemia major; assay: Retrospective study of cardiac disease (NYHA class, echocardiogram) and survival under chelation therapy; format: in vivo, human; settings: for Percentage of patients with improvement of cardiac disease diagnosed at first assessment: NYHA classification; for Percentage of patients with worsening of the cardiac disease: overall, patients with at least 2 cardiac assessments; for Newly diagnosed cardiac disease: patients cardiac disease-free at first assessment with a second cardiac assessment; for Deaths during the study period: patients treated for 4 or more years; for Normalization of the Ejection Fraction (EF) during chelation therapy: patients with abnormal EF at first assessment (2 deferiprone, 1 desferrioxamine); for Improvement of the Systolic Function (SF): patients with abnormal SF at first echocardiographic assessment; for Percentage of patients with improvement of cardiac disease diagnosed at first assessment / Worsening of the cardiac disease in patients with previously diagnosed cardiac disease: patients with cardiac disease at first assessment
Description: The study was a single centre, retrospective analysis of medical records of the occurrence of cardiac disease and of the survival of all subjects with thalassemia major treated with deferiprone or with desferrioxamine at the Centro Microcitemie of the University of Turin since Jan. 1, 1995. The medical records were evaluated of all patients ≧5 year-old at the time of the start of the review period and who had the diagnosis of thalassemia major confirmed by laboratory tests (electrophoresis and/or DNA analysis) and clinical criteria (participant's hemoglobin and transfusion dependency).
In addition to the clinical evaluation and laboratory testing, patients underwent periodic cardiac examination and assessment by a cardiologist, which in addition to the physical examination included echocardiogram and 24-hour electrocardiographic Holter monitoring if indicated. Cardiac disease was classified, according to the criteria defined by the New York Heart Association ^17, by a cardiologist experienced in heart problems in subjects with hemoglobinopathies and who was unaware of the chelation therapy of the patients. Worsening of the Systolic Function (SF) or the Ejection Fraction (EF) was defined as an abnormal result at the last assessment in patients with a normal result at the first assessment for the study. Improvement was defined as a normal result at the last assessment for patients with an abnormal result at the first assessment. The first cardiac assessment was considered as the baseline value for each patient. For patients with more than one echocardiograph assessment within a year of the study, the change was based on the mean of the results of that year.
Starting in 1995, a substantial proportion of subjects followed up at the center were treated with deferiprone, in clinical trials or for compassionate therapy. For these patients, deferiprone was given in a dose of 25 mg/kg of body weight, three times per day. The remaining patients had maintained therapy with desferrioxamine (20 to 60 mg/kg/day), given as a subcutaneous infusion for 8 to 12 hour, 4 to 7 days a week except for one patient. Although 2 patients in the desferrioxamine group had their chelation intensified with intravenous chelation during the period of this review, they were not excluded from the analysis.
The Kaplan-Meier analysis of heart disease free survival for patients who were disease-free (NYHA class not applicable=0) at the beginning of the review period was performed by using the procedure LIFETEST from SAS (SAS Institute, Cary, N.C.). The primary comparison of the two groups was based on the log rank test. […] In addition to the Kaplan-Meier analysis, the incidence of patients with a worsening of their NYHA class from the first to the last cardiac assessment was determined for, each treatment group. Chi-square test was performed to compare the incidence between the two groups.

[2] = test system: iron overload in patients with thalassemia major; assay: Iron overload assessment in the retrospective study (serum ferritin, hepatic iron by SQUID, urinary iron excretion); format: in vivo, human; settings: for Mean ± SD overall urinary iron excretion: during the study period
Description: All patients were subjected to the same transfusion regimen aimed at maintaining the pretransfusion hemoglobin levels at 9.5–10.0 g/dL and the mean hemoglobin at 12.0 g/dL. At each episode of red blood cell transfusion, each patient was interviewed and underwent clinical evaluation by a staff physician. The iron overload was determined by monthly assessment of the transfusional-iron input and by quarterly assessment of serum ferritin.
To evaluate the differences related to chelation therapy between the two groups of subjects, after the start of the study, 2 sample t-tests or Chi-square tests were performed to compare their transfusional iron input, serum ferritin, percentage of subjects with more than 50% of their serum ferritin data greater than 2500 μg/L during the study, compliance with chelation therapy, liver iron concentration and urinary iron excretion.

[3] = test system: cardiac iron; settings: cited from earlier work; for Change in T2 relaxation time in a randomized trial: mean treatment period of 22 months
[4] = test system: iron-loaded rat neonatal myocytes; settings: cited from earlier work; for Cardio-protective effects against iron-induced damage in neonatal rat myocytes: 100 μM; for Protecting the myocytes against iron-induced damage: at the concentrations used; for Removing iron from iron-loaded rat neonatal myocytes: in vitro
[5] = test system: mouse model; settings: mouse model of Gale et al; cited from earlier work
[6] = Serum / blood concentrations at standard doses; format: in vivo, human; settings: current / standard formulation
Description: Although a serum concentration of 100 μM for deferiprone can occur with the administration of a single 25 mg/kg dose^22, the serum concentration of desferrioxamine in patients receiving 40 mg/kg/day is usually less than 10 μM.^23. Since the desferrioxamine concentrations used in the myocyte study were more than 10fold the expected serum concentrations, the in vivo cardioprotective effect of this chelator would be expected to be less than that of deferiprone, but not four times less protective placing the patient at a 4-fold greater likelihood of developing a worsening of their cardiac status with desferrioxamine.
Another factor may be related to the different pharmacokinetic characteristics of deferiprone and desferrioxamine when these drugs are given at standard doses, as in the present study. For example, deferiprone at 25 mg/kg, produces peak concentrations of approximately 100 μM with serum concentrations declining to about 10 μM in 6 hours, and this pattern is repeated three times daily, seven days a week. On the other hand, desferrioxamine at 40 mg/kg achieves concentrations of only 5–10 μM and only for the duration of the infusion (8–12 hours/day, 5–7 days per week). The long periods of time without the presence of an iron chelator may have a profound effect on the generation of iron-induced activity within myocytes and through non-transferrin bound iron. […]

[7] = test system: subjects with thalassemia; assay: Prospective clinical study of the Assignee in 187 subjects with thalassemia, heart failure; format: in vivo, human; settings: treated for up to 5 years
From the text: The Assignee completed other studies wherein the largest prospective clinical study ever conducted for an iron chelator was made. One hundred eighty-seven subjects with thalassemia were enrolled in this trial conducted by Drs. A. Cohen, R. Galanello, A. Piga, and V. De […] in 3 centres in Italy and 1 center in the USA.

[8] = test system: subjects with thalassemia major; settings: one patient participating in the study (ref. 31); cited from earlier work
[9] = cited from earlier work
[10] = test system: patients; settings: large safety study; cited from earlier work

SMILES	Percentage of patients with improvement of cardiac disease diagnosed at first assessment [1]	Worsening of the SF at the last assessment ([1]; number of patients)	Percentage of patients with worsening of the cardiac disease [1]	Newly diagnosed cardiac disease [1]	Deaths during the study period [1]	Normalization of the Ejection Fraction (EF) during chelation therapy [1]	Improvement of the Systolic Function (SF) [1]	Worsening of the cardiac disease in patients with previously diagnosed cardiac disease [1]	Mean ± SD hepatic iron concentration - SQUID during the last year of the review period [2]	Percentage (%) of patients with more than 50% of their serum ferritin results > 2,500 μg/L during the review period [2]	Mean ± SD overall urinary iron excretion [2]	Mean serum ferritin ± SD at year 4 of the review period [2]	Change in T2 relaxation time in a randomized trial [3]	Cardio-protective effects against iron-induced damage in neonatal rat myocytes [4]	Protecting the myocytes against iron-induced damage [4]	Removing iron from iron-loaded rat neonatal myocytes [4]	Reduction of iron concentrations from the heart [5]	further results
CC(=O)N(O)CCCCCNC(=O)CCC(=O)N(O)CCCCCNC(=O)CCC(=O)N(O)CCCCCN [Desferrioxamine]	27 (3/11) %	6 patients	17 (10/59) %	19%	No patient	All three patients presented a normalization of the EF	5 of the 8	one of the 11	1.8 ± 1.0 mg FE/g liver wet weight	21%	15.5 ± 12.9 mg Fe/day	2050 ± 1319 µg/L	no change	equal cardio-protective effects	equally effective	effective	none of the compounds studied, being desferrioxamine and deferiprone among others, reduced iron concentrations from the heart	Percentage of patients with improvement of cardiac disease diagnosed at first assessment ([1]; listed as desferrioxamine): 27%; Likelihood to develop a worsening of cardiac status versus deferiprone-treated patients ([1]; desferrioxamine versus deferiprone, same period): 4 fold; Worsening of the EF ([1]; number of patients): 3 patients; Percentage of patients with worsening of the cardiac disease ([1]; listed as desferrioxamine): 17%; Iron removed, comparison of the two chelators ([4]; equimolar concentrations): removed more iron than deferiprone
Cc1c(O)c(=O)ccn1C [Deferiprone, 1,2-dimethyl-3-hydroxypyrid-4one]	40 (2/5) %	2 patients	4 (2/45) %	5%	No patient	All three patients presented a normalization of the EF	2 of the 4	none of the 5	2.5 ± 1.2 mg FE/g liver wet weight	33%	18.1 ± 13.2 mg Fe/day	2402 ± 1331 µg/L	significant improvement	equal cardio-protective effects	equally effective	effective	none of the compounds studied, being desferrioxamine and deferiprone among others, reduced iron concentrations from the heart	Percentage of patients with improvement of cardiac disease diagnosed at first assessment ([1]; listed as deferiprone): 40%; Percentage of patients with worsening of the cardiac disease ([1]; listed as deferiprone): 4%; Time after which blood levels fall to very low levels [6]: about 4 hours; Occurrence of heart failure [7]: no heart failure occurred; Reversal of iron-induced congestive heart failure [8]: successful reversal; T2 relaxation time, after treatment ([3]; 23 patients treated for over one year, normal 32 msec): 30.5 ± 6.7 ms; T2 relaxation time, before ([3]; 23 patients, start value, normal 32 msec): 26.6 ± 8.4 ms; Serum concentrations declining to ([9]; 25 mg/kg, in 6 hours): about 10 μM; Peak concentrations ([9]; 25 mg/kg): approximately 100 μM; Serum concentration ([9]; single 25 mg/kg dose): 100 µM; Development of agranulocytosis [10]: about 1%

Reference: patent US7049328B2, “Use for deferiprone” (priority 2000, dated 2006)
